# Source: ChEMBL document CHEMBL1201862, “PubChem BioAssay data set” (2004)
# The source made the active and inactive calls.
# Legend:
# [1] = molecular target: Voltage-gated inwardly rectifying potassium channel KCNH2 (Homo sapiens, UniProt Q12809); test: hERG protection from proarrhythmic block, potency, dose response, cell-based, thallium flux (AID 2121); format: ADME
# [2] = molecular target: Cytochrome P450 2C19 (Homo sapiens, UniProt P33261); test: Cytochrome panel assay with activity outcomes. Panel member name: p450-cyp2c19 Compounds with AC50 equal or less than 10 uM are considered active; format: functional; conditions: read-out: AC50
# Cytochrome P450 2C19, sequence (P33261 whole entry): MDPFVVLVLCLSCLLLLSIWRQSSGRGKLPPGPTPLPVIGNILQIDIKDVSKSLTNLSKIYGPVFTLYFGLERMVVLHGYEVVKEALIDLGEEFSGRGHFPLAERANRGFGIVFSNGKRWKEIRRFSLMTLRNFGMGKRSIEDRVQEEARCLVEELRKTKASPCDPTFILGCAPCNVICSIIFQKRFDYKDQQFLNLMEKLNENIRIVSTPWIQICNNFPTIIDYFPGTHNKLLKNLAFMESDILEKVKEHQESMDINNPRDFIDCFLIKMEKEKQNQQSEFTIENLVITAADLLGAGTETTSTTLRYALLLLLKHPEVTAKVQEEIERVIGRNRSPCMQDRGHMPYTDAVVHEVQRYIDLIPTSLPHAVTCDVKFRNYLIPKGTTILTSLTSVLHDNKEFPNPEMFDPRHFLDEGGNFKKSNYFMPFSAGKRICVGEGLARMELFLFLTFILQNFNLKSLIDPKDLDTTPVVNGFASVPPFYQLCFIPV
# [3] = molecular target: Cytochrome P450 2C9 (Homo sapiens, UniProt P11712)
# Cytochrome P450 2C9, sequence (P11712 whole entry): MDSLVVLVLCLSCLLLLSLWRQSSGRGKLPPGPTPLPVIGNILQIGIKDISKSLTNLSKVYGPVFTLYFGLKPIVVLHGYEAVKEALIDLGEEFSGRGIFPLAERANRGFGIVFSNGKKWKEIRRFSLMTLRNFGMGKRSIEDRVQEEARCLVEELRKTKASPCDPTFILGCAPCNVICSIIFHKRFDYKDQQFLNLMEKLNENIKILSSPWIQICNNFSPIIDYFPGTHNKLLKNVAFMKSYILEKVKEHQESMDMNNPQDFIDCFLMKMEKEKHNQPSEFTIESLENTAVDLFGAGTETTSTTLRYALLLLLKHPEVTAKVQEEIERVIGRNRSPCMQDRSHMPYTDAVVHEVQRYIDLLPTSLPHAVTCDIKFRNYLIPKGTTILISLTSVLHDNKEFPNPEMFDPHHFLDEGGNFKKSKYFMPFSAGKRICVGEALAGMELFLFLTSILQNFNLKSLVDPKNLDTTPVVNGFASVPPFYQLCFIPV
# [4] = molecular target: T1, Protein skinhead-1 (Caenorhabditis elegans, UniProt P34707); format: functional
# T1 sequence (P34707 whole entry): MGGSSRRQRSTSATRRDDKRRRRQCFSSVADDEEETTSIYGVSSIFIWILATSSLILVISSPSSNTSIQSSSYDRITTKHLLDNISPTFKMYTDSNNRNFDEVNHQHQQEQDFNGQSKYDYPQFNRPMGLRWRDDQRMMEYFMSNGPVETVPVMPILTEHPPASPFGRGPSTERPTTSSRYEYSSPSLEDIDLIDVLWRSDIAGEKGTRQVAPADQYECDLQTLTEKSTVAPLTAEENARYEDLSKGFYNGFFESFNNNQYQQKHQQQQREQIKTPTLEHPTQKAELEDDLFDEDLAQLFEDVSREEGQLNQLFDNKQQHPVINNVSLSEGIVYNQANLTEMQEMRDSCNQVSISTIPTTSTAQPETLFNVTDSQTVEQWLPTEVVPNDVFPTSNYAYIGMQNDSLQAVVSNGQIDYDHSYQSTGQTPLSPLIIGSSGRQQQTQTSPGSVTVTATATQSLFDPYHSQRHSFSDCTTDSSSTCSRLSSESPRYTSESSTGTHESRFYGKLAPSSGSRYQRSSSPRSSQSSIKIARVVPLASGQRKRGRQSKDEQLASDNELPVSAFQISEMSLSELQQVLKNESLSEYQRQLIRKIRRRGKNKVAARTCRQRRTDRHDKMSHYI
# [5] = molecular target: Cytochrome P450 3A4 (Homo sapiens, UniProt P08684);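 further: CYP3A4 tested as one member of a cytochrome P450 panel screen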
# Cytochrome P450 3A4, sequence (P08684 whole entry): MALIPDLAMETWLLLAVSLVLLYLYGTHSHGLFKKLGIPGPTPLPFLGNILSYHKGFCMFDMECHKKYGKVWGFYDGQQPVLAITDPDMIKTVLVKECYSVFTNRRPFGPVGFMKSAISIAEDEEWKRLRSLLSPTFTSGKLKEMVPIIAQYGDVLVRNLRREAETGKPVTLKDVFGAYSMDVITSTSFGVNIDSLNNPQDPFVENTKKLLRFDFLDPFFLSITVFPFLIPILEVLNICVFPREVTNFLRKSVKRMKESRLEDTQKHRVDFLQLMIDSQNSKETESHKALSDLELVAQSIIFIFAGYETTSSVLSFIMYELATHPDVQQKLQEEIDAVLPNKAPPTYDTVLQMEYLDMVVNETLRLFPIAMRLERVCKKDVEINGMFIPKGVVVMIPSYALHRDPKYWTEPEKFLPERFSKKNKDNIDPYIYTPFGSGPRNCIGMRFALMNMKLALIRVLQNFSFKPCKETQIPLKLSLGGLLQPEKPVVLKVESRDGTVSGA
# [6] = molecular target: T2, Neuropeptide Y receptor type 1 (Homo sapiens, UniProt P25929); test: NPY-Y1 receptor antagonist potency, dose response, cell-based (AID 1277); format: functional
# T2 sequence (P25929 whole entry): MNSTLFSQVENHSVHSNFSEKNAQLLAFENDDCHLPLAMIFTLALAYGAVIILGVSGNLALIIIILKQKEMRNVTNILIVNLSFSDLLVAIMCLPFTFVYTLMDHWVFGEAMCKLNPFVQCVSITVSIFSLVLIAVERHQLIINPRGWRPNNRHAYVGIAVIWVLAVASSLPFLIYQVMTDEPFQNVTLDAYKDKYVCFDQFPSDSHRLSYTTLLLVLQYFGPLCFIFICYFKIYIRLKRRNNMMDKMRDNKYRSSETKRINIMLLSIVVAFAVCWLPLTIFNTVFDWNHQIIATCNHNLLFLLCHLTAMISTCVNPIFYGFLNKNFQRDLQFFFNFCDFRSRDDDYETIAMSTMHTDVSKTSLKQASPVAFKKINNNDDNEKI
# [7] = molecular target: T3, Neuropeptide Y receptor type 2 (Homo sapiens, UniProt P49146); test: NPY-Y2 antagonist potency, selectivity check, dose response, counter-screen for NPY-Y1 antagonist project, cell-based (AID 1278); format: functional
# T3 sequence (P49146 whole entry): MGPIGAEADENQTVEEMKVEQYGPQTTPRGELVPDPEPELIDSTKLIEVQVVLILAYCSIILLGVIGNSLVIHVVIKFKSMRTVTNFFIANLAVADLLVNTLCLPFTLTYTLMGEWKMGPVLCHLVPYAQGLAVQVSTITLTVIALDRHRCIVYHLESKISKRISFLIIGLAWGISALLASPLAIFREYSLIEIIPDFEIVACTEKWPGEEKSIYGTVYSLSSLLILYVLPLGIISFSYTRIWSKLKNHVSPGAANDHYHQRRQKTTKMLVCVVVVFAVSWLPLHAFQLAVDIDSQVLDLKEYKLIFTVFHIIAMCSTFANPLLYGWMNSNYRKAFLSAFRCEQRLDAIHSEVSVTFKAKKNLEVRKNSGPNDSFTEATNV
# [8] = molecular target: T4, Carboxy-terminal domain RNA polymerase II polypeptide A small phosphatase 1 (Homo sapiens, UniProt Q9GZU7); test: inhibitors of CTDSP1, concentration-response testing, biochemical assay, absorbance-based, actives from ultra-high-throughput screening (AID 540297); format: functional
# T4 sequence (Q9GZU7 whole entry): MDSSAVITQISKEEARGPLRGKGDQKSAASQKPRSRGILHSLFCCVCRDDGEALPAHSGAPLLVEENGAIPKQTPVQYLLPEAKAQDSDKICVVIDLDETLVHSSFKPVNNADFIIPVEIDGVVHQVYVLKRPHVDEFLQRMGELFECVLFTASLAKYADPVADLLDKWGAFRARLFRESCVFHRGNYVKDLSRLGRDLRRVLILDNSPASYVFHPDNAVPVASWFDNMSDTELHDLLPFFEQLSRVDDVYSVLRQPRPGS
# [9] = molecular target: Induced myeloid leukemia cell differentiation protein Mcl-1 (Homo sapiens, UniProt Q07820); test: MCL1-BIM BH3 interaction inhibitors, dose response, biochemical, fluorescence polarization, BIM-BH3 peptide, 1536-well (AID 2217)
# Induced myeloid leukemia cell differentiation protein Mcl-1, sequence (Q07820 whole entry): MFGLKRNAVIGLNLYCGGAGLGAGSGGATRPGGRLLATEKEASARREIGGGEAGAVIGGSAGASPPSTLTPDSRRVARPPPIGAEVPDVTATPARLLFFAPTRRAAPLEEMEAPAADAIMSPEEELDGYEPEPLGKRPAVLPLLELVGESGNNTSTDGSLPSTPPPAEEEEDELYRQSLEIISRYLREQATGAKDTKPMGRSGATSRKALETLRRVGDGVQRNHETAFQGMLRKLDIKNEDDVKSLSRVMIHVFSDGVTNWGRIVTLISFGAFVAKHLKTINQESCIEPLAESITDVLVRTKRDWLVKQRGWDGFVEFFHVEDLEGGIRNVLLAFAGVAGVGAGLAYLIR
# [10] = molecular target: Bcl-2-like protein 1 (Homo sapiens, UniProt Q07817); test: BCL-XL inhibitors, dose response, selectivity assay for MCL1 inhibitor project, biochemical, fluorescence polarization, 1536-well (AID 2218)
# Bcl-2-like protein 1, sequence (Q07817 whole entry): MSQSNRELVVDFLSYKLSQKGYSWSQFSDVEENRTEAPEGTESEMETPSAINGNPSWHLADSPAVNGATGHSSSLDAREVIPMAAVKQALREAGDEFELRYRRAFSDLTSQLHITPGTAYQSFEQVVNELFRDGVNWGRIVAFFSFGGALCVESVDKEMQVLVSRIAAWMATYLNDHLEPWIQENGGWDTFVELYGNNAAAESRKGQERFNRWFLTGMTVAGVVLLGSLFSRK
# [11] = molecular target: Eukaryotic translation initiation factor 4E (Mus musculus, UniProt P63073); test: eIF4E–eIF4G protein interaction inhibitors, dose response, biochemical, TR-FRET (AID 855); format: functional;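 further: potency for disrupting eIF4E binding to eIF4GI seen as loss of FRET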
# Eukaryotic translation initiation factor 4E, sequence (P63073 whole entry): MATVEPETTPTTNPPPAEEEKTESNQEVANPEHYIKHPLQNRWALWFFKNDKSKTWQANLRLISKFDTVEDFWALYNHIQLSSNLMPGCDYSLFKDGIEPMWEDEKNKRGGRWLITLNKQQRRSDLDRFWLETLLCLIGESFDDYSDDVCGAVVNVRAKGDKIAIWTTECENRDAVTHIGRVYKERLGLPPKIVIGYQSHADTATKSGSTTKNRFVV
# [12] = M. tuberculosis H37Rv growth inhibitors, H37Rv strain (AID 1626); format: functional
# [13] = A549 cell cytotoxicity, dose response, cytotoxicity control, plate reader, cherry-pick, antagonist series (AID 743412); format: functional, cell-based
# [14] = LGR2 antagonists, dose response, cell-based, HEK293, CRE-luciferase reporter, cherry pick, set 2 (AID 743343); format: functional;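 further: transfected cells were stimulated with diluted bursicon conditioned medium after compound addition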
# [15] = HEK293 cell cytotoxicity, dose response, cytotoxicity control, plate reader, cherry-picked samples (AID 743446); format: functional, cell-based
# [16] = growth suppression of PTEN-null colon cells, dose response, cell-based, HCT116 PTEN knockout (AID 1047); format: functional;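 further: HCT116 colon tumor cells with PTEN knocked out; cells exposed to compound for 60 hours before readout; potency for loss of cell viability measured by luminescence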
# [17] = HepG2 cell cytotoxicity, dose response, cytotoxicity control, plate reader, cherry-pick, antagonist series (AID 743416); format: functional, cell-based
# [18] = growth suppression of beta-catenin-knockout colon cells, dose response, cell-based, HCT116, human colon tumor (AID 1045); format: functional;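 further: HCT116 colon tumor cells with beta catenin knocked out; cells exposed to compound for 60 hours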
# [19] = MC4R antagonists, dose response, counter-screen for LGR2 antagonist project, cell-based, plate reader, cherry pick (AID 743444); format: functional;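 further: transfected HEK 293 cells stimulated with alpha-MSH peptide; potency of inhibitors of the alpha-MSH evoked signal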
# [20] = molecular target: Neurotensin receptor type 1 (Homo sapiens, UniProt P30989); format: functional;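 further: Image-based confirmatory dose-response assay measuring agonist activity at NTR1; NTR1-expressing U2OS osteosarcoma cells imaged for beta-arrestin GFP spot formation; agonist potency where compounds increase beta-arrestin recruitment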
# Neurotensin receptor type 1, sequence (P30989 whole entry): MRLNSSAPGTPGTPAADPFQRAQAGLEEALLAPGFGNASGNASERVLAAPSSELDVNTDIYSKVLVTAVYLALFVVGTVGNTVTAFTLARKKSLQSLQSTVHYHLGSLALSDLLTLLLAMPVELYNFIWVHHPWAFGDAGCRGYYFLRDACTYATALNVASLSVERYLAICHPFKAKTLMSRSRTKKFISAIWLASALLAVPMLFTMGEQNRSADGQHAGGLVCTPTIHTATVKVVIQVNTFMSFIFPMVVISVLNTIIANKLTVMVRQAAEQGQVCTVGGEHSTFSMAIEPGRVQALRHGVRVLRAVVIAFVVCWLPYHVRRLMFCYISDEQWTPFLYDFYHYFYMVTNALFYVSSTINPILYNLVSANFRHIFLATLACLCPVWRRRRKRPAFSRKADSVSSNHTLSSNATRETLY
# Voltage-gated inwardly rectifying potassium channel KCNH2, sequence (Q12809 whole entry): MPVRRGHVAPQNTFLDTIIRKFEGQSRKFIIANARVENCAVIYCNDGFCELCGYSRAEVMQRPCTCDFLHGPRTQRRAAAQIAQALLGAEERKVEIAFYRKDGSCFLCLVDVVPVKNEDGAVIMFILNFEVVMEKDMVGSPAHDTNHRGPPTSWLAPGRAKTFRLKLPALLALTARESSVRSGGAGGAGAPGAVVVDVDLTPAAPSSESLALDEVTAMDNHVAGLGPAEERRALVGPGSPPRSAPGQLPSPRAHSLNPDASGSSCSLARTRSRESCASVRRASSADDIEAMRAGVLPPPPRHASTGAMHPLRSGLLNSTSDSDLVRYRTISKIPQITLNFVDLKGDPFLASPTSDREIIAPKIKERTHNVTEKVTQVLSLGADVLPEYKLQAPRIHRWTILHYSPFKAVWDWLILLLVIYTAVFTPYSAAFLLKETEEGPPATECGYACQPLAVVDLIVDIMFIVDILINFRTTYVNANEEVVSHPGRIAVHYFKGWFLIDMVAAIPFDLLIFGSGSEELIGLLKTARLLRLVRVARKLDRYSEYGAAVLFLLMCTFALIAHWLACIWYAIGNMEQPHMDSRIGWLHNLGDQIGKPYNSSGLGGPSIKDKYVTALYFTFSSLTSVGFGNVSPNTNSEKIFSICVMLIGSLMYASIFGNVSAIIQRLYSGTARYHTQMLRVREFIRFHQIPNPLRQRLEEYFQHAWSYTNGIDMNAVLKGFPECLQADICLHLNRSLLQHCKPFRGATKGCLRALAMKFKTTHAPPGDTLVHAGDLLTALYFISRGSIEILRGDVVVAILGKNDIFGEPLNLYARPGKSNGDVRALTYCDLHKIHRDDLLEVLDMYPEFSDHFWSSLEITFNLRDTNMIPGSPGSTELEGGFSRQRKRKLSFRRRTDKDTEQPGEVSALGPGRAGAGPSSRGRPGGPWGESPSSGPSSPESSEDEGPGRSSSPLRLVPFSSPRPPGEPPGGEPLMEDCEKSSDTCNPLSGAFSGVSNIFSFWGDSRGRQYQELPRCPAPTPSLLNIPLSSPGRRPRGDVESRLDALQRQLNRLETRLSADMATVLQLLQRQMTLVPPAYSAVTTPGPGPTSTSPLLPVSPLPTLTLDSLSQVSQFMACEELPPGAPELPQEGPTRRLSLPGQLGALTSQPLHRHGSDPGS
structure (smiles),measurement,setting,value
Cc1ccc(NC(=S)c2nc3ccccc3s2)cc1,EC50,[1],0.46 µM (active)
same,AC50,[2],0.0251 µM (inconclusive)
same,AC50,[3],10 µM (inconclusive)
same,IC50,[4],> 100 µM (inactive)
same,AC50,[5],22.4 µM (inconclusive)
CCC(C)(C(=O)NC1CCCC1)N(Cc1ccco1)C(=O)Cc1cccs1 (stereo unspecified),IC50,[6],> 35 µM (not active)
same,IC50,[7],> 35 µM (not active)
O=C(/C=C/c1ccco1)N(c1ccccn1)c1ccccn1,IC50,[8],3.29 µM (active)
same,IC50,[9],19.8 µM (not active)
same,IC50,[10],> 109 µM (not active)
same,IC50,[11],50 µM (inactive)
N#Cc1ccc(/C=C/C(=O)c2ccc3c(c2)OCO3)cc1,IC50,[12],> 100 µM (active)
CC(C)C(=O)N1CCN(c2ccc(NC(=O)c3ccc4c(c3)OCCO4)cc2Cl)CC1,AC50,[13],22.6 µM (active)
same,AC50,[14],16 µM (active)
same,AC50,[15],10.7 µM (active)
same,EC50,[16],9.21 µM (active)
same,IC50,[12],> 100 µM (active)
same,AC50,[17],17.7 µM (active)
same,EC50,[18],9.2 µM (active)
same,AC50,[19],19.1 µM (active)
same,EC50,[20],18.5 µM (active)
